{
  "source": "PubChem BioAssay AID651978",
  "about": "(The Scripps Research Institute Molecular Screening Center, 2013)",
  "experiment_in_all_cases": "PubChem AID 651978",
  "key": {"[1]": {"tested_on": "ABHD12", "settings": "BW5147 mouse T-cell proteome, ABPP-SILAC LC-MS ratio, at 1 µM, active compounds read low"}, "[2]": {"tested_on": "PNPLA7", "settings": "BW5147 mouse T-cell proteome, ABPP-SILAC LC-MS ratio, at 1 µM, active compounds read low"}, "[3]": {"molecular_target": "Acyl-protein thioesterase 1 (Mus musculus) (UniProt P97823)", "sequence (P97823 whole entry, looked up)": "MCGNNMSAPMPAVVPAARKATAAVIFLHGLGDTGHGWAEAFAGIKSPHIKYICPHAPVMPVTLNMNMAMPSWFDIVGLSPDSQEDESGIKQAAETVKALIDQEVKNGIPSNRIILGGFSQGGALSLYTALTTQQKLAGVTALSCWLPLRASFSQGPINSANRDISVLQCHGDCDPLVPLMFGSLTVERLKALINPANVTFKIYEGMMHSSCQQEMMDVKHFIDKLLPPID", "settings": "BW5147 mouse T-cell proteome, ABPP-SILAC LC-MS ratio; LYPLA1; at 1 µM; active compounds read low"}, "[4]": {"tested_on": "FAAH", "settings": "BW5147 mouse T-cell proteome, ABPP-SILAC LC-MS ratio, at 1 µM, active compounds read low"}, "[5]": {"tested_on": "FASN", "settings": "BW5147 mouse T-cell proteome, ABPP-SILAC LC-MS ratio, at 1 µM, active compounds read low"}, "[6]": {"tested_on": "APEH", "settings": "BW5147 mouse T-cell proteome, ABPP-SILAC LC-MS ratio, at 1 µM, active compounds read low"}, "[7]": {"tested_on": "PRCP", "settings": "BW5147 mouse T-cell proteome, ABPP-SILAC LC-MS ratio, at 1 µM, active compounds read low"}, "[8]": {"tested_on": "SIAE", "settings": "BW5147 mouse T-cell proteome, ABPP-SILAC LC-MS ratio, at 1 µM, active compounds read low"}, "[9]": {"tested_on": "DPP8", "settings": "BW5147 mouse T-cell proteome, ABPP-SILAC LC-MS ratio, at 1 µM, active compounds read low"}, "[10]": {"tested_on": "ACOT2", "settings": "BW5147 mouse T-cell proteome, ABPP-SILAC LC-MS ratio, at 1 µM, active compounds read low"}, "[11]": {"tested_on": "AADACL1", "settings": "BW5147 mouse T-cell proteome, ABPP-SILAC LC-MS ratio, at 1 µM, active compounds read low"}, "[12]": {"molecular_target": "Monoacylglycerol lipase ABHD6 (Mus musculus) (UniProt Q8R2Y0)", "sequence (Q8R2Y0 whole entry, looked up)": "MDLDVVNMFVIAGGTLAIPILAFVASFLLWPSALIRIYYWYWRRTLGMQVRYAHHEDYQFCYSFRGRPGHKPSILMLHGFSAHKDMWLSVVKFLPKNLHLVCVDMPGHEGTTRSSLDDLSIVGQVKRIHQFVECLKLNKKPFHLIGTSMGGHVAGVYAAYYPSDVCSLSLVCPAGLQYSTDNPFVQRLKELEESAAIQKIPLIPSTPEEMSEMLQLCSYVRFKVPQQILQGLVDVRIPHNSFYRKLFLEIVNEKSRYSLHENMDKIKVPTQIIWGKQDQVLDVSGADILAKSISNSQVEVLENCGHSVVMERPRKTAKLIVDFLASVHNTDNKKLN", "settings": "BW5147 mouse T-cell proteome, ABPP-SILAC LC-MS ratio, at 1 µM, active compounds read low"}, "[13]": {"tested_on": "ACOT1", "settings": "BW5147 mouse T-cell proteome, ABPP-SILAC LC-MS ratio, at 1 µM, active compounds read low"}, "[14]": {"molecular_target": "Prolyl endopeptidase (Mus musculus) (UniProt Q9QUR6)", "sequence (Q9QUR6 whole entry, looked up)": "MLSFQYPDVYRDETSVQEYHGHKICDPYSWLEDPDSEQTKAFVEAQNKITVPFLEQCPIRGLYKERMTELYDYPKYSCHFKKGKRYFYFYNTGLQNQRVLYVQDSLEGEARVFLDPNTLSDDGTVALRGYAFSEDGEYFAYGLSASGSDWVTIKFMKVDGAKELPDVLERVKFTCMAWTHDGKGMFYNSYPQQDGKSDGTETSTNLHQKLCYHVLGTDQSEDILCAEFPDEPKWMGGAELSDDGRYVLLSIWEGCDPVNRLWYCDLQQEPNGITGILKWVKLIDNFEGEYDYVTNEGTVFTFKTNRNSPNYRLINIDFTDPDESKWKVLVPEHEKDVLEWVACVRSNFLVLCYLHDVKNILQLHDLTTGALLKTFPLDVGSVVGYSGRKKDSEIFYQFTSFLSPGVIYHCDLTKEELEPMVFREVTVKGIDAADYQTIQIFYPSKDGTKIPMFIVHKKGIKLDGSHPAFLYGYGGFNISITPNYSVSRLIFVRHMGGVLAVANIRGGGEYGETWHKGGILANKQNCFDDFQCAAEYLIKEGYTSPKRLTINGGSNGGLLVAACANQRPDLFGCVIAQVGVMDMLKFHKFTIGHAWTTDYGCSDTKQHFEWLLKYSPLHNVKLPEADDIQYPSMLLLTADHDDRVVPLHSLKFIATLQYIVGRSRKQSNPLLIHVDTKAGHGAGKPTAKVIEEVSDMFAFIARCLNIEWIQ", "settings": "BW5147 mouse T-cell proteome, ABPP-SILAC LC-MS ratio; PREP; at 1 µM; active compounds read low"}, "[15]": {"tested_on": "ESD", "settings": "BW5147 mouse T-cell proteome, ABPP-SILAC LC-MS ratio, at 1 µM, active compounds read low"}, "[16]": {"molecular_target": "sn-1-specific diacylglycerol lipase ABHD11 (Mus musculus) (UniProt Q8K4F5)", "sequence (Q8K4F5 whole entry, looked up)": "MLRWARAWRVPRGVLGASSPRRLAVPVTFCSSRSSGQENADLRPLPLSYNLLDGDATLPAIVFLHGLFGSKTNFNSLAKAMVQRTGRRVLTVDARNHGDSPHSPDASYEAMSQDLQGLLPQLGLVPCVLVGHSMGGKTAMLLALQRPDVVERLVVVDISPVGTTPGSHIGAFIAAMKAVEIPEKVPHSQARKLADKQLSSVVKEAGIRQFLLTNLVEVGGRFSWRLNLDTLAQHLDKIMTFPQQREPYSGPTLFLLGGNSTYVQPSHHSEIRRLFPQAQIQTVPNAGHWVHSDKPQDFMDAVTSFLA", "settings": "BW5147 mouse T-cell proteome, ABPP-SILAC LC-MS ratio, at 1 µM, active compounds read low"}, "[17]": {"tested_on": "LACTB", "settings": "BW5147 mouse T-cell proteome, ABPP-SILAC LC-MS ratio, at 1 µM, active compounds read low"}, "[18]": {"tested_on": "PAFAH1B3", "settings": "BW5147 mouse T-cell proteome, ABPP-SILAC LC-MS ratio, at 1 µM, active compounds read low"}, "[19]": {"tested_on": "PNPLA6", "settings": "BW5147 mouse T-cell proteome, ABPP-SILAC LC-MS ratio, at 1 µM, active compounds read low"}, "[20]": {"tested_on": "DPP9", "settings": "BW5147 mouse T-cell proteome, ABPP-SILAC LC-MS ratio, at 1 µM, active compounds read low"}, "[21]": {"molecular_target": "Platelet-activating factor acetylhydrolase 2, cytoplasmic (Mus musculus) (UniProt Q8VDG7)", "sequence (Q8VDG7 whole entry, looked up)": "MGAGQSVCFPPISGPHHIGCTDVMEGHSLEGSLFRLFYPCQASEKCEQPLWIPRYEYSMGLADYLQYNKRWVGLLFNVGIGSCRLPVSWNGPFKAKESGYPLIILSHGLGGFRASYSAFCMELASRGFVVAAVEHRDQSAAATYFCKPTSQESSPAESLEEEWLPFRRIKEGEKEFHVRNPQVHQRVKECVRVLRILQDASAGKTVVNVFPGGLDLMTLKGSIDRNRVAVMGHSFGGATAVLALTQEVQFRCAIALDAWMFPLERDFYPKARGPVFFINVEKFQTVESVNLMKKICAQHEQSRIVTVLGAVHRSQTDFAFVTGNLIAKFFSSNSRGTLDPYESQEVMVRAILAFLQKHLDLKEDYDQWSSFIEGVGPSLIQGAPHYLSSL", "settings": "BW5147 mouse T-cell proteome, ABPP-SILAC LC-MS ratio; PAFAH2; at 1 µM; active compounds read low"}, "[22]": {"tested_on": "PREPL", "settings": "BW5147 mouse T-cell proteome, ABPP-SILAC LC-MS ratio, at 1 µM, active compounds read low"}, "[23]": {"tested_on": "PAFAH1B2", "settings": "BW5147 mouse T-cell proteome, ABPP-SILAC LC-MS ratio, at 1 µM, active compounds read low"}, "[24]": {"tested_on": "CTSA", "settings": "BW5147 mouse T-cell proteome, ABPP-SILAC LC-MS ratio, at 1 µM, active compounds read low"}, "[25]": {"tested_on": "LYPLA2", "settings": "BW5147 mouse T-cell proteome, ABPP-SILAC LC-MS ratio, at 1 µM, active compounds read low"}, "[26]": {"tested_on": "DPP4", "settings": "BW5147 mouse T-cell proteome, ABPP-SILAC LC-MS ratio, at 1 µM, active compounds read low"}, "[27]": {"tested_on": "LIPA", "settings": "BW5147 mouse T-cell proteome, ABPP-SILAC LC-MS ratio, at 1 µM, active compounds read low"}, "[28]": {"tested_on": "DPP7", "settings": "BW5147 mouse T-cell proteome, ABPP-SILAC LC-MS ratio, at 1 µM, active compounds read low"}, "[29]": {"molecular_target": "Palmitoyl-protein thioesterase ABHD10, mitochondrial (Mus musculus) (UniProt Q6PE15)", "sequence (Q6PE15 whole entry, looked up)": "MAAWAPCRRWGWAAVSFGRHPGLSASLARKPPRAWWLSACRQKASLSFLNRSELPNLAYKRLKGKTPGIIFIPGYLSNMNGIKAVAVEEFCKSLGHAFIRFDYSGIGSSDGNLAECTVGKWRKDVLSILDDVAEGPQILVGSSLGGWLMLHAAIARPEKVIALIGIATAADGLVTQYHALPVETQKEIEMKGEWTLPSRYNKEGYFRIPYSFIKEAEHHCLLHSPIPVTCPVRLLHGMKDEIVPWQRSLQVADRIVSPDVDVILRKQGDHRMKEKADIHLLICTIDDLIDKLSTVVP", "settings": "BW5147 mouse T-cell proteome, ABPP-SILAC LC-MS ratio, at 1 µM, active compounds read low"}},
  "note": "Calls of active or inactive are those of the source. No rule for the calls is given here.",
  "data": [
    {"smiles": "O=C(CN1CCN(C(=O)c2ccco2)CC1)Nc1cc(C(F)(F)F)ccc1Cl", "values": [
      {"measurement": "light/heavy ratio (remaining activity)", "setting": "[1]", "result": "1.29 (inactive)"},
      {"measurement": "light/heavy ratio (remaining activity)", "setting": "[2]", "result": "1.29 (inactive)"},
      {"measurement": "light/heavy ratio (remaining activity)", "setting": "[3]", "result": 0.03},
      {"measurement": "light/heavy ratio (remaining activity)", "setting": "[4]", "result": "1.19 (inactive)"},
      {"measurement": "light/heavy ratio (remaining activity)", "setting": "[5]", "result": "1.1 (inactive)"},
      {"measurement": "light/heavy ratio (remaining activity)", "setting": "[6]", "result": "1.06 (inactive)"},
      {"measurement": "light/heavy ratio (remaining activity)", "setting": "[7]", "result": "0.97 (inactive)"},
      {"measurement": "light/heavy ratio (remaining activity)", "setting": "[8]", "result": "0.98 (inactive)"},
      {"measurement": "light/heavy ratio (remaining activity)", "setting": "[9]", "result": "1.08 (inactive)"},
      {"measurement": "light/heavy ratio (remaining activity)", "setting": "[10]", "result": "1.08 (inactive)"},
      {"measurement": "light/heavy ratio (remaining activity)", "setting": "[11]", "result": "1.05 (inactive)"},
      {"measurement": "light/heavy ratio (remaining activity)", "setting": "[12]", "result": "1.18 (inactive)"},
      {"measurement": "light/heavy ratio (remaining activity)", "setting": "[13]", "result": "1.22 (inactive)"},
      {"measurement": "light/heavy ratio (remaining activity)", "setting": "[14]", "result": "1.08 (inactive)"},
      {"measurement": "light/heavy ratio (remaining activity)", "setting": "[15]", "result": "1.05 (inactive)"},
      {"measurement": "light/heavy ratio (remaining activity)", "setting": "[16]", "result": "0.74 (inactive)"},
      {"measurement": "light/heavy ratio (remaining activity)", "setting": "[17]", "result": "1.23 (inactive)"},
      {"measurement": "light/heavy ratio (remaining activity)", "setting": "[18]", "result": "1.04 (inactive)"},
      {"measurement": "light/heavy ratio (remaining activity)", "setting": "[19]", "result": "1.2 (inactive)"},
      {"measurement": "light/heavy ratio (remaining activity)", "setting": "[20]", "result": "1.06 (inactive)"},
      {"measurement": "light/heavy ratio (remaining activity)", "setting": "[21]", "result": "1.3 (inactive)"},
      {"measurement": "light/heavy ratio (remaining activity)", "setting": "[22]", "result": "0.95 (inactive)"},
      {"measurement": "light/heavy ratio (remaining activity)", "setting": "[23]", "result": "1.04 (inactive)"},
      {"measurement": "light/heavy ratio (remaining activity)", "setting": "[24]", "result": "1.11 (inactive)"},
      {"measurement": "light/heavy ratio (remaining activity)", "setting": "[25]", "result": "0.84 (inactive)"},
      {"measurement": "light/heavy ratio (remaining activity)", "setting": "[26]", "result": "1.24 (inactive)"},
      {"measurement": "light/heavy ratio (remaining activity)", "setting": "[27]", "result": "1.12 (inactive)"},
      {"measurement": "light/heavy ratio (remaining activity)", "setting": "[28]", "result": "0.87 (inactive)"},
      {"measurement": "light/heavy ratio (remaining activity)", "setting": "[29]", "result": "0.76 (inactive)"}
    ]}
  ]
}
